The record followed here is patent publication US9770026B2, “Substituted pyrimidine compound and uses thereof” (Shenyang Sinochem Agrochemicals R&D Co., Ltd., priority 2012, dated 2017).

The test system of assay [1] is Diamond back moth. The assay can be described thus: insecticidal activity against diamond back moth, airbrush spray. The format is in vivo. The conditions noted are these: for pest or weed control at 600 µg/mL: 72 h. As for the experimental part:
(§1) Compounds were dissolved in mixed solvent (acetone:methanol=1:1), and diluted to required concentration with water containing 0.1% of tween 80.
(§2) Diamond back moth, armyworm, peach aphid and carmine spider mite were used as targets and the method of spraying by airbrush was used for determination of insecticidal biassays.
The method of spraying by airbrush: The cabbage leaves were made into plates of 2 cm diameter by use of punch. A test solution (0.5 ml) was sprayed by airbrush at the pressure of 0.7 kg/cm^2 to both sides of every plate. 10 Second instar larvae were put into the petri-dishes after the leaf disc air-dried and 3 replicates were set for each treatment. Then the insects were maintained in observation room (25° C., 60˜70% R.H.). Scores were conducted and mortalities were calculated after 72 hrs.

For assay [2], the system named is armyworm. The assay can be described thus: bioactivity test against armyworm, airbrush spray. Type of assay: in vivo. The note with it: 600 mg/L; for pest or weed control at 600 µg/mL: 72 h, read-out: Insecticidal activity against armyworm (%). As for the experimental part: as §1, §2
The method of spraying by airbrush: The corn leaves were made into plates of 2 cm diameter by use of punch. A test solution (0.5 ml) was sprayed by airbrush at the pressure of 0.7 kg/cm^2 to both sides of every plate. 10 Second instar larvae were put into the petri-dishes after the leaf disc air-dried and 3 replicates were set for each treatment. Then the insects were maintained in observation room (25 °C, 60˜70% R.H.). Scores were conducted and mortalities were calculated after 72 h.

In assay [3] the test system is Green peach aphids (Myzus Persicae Sulzer). Kind of assay: bioactivity test against green peach aphid, airbrush foliar spray. The conditions noted are these: contrastive test. Type of assay: in vivo. Put shortly:
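Aphids (15-30 per cabbage leaf disc) on moist filter paper were airbrush-sprayed at 10 psi, 0.5 mL, with compound from acetone:methanol (1:1) diluted in water with 0.1% tween 80. Held at 25±1 C, 60±5% RH; survivors counted after 48 hrs to give death rates.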

The test system of assay [4] is corn rust. Kind of assay: protectant activity in vivo against corn rust. The conditions noted are these: protectant activity; for pest or weed control at 400 µg/mL: read-out: control effect against corn rust (%), 400 mg/L.
Assay [5] relates to wheat powdery mildew. Kind of assay: protectant activity in vivo against wheat powdery mildew. The note with it: protectant activity; for pest or weed control at 6.25 µg/mL / pest or weed control at 25 µg/mL / pest or weed control at 100 µg/mL / pest or weed control at 400 µg/mL: Triticum aestivum, 168 h; for pest or weed control at 6.25 µg/mL: read-out: control effect against wheat powdery mildew (%), 6.25 mg/L; for pest or weed control at 25 µg/mL: read-out: control effect against wheat powdery mildew (%), 25 mg/L; for pest or weed control at 100 µg/mL: read-out: control effect against wheat powdery mildew (%), 100 mg/L; for pest or weed control at 400 µg/mL: read-out: control effect against wheat powdery mildew (%), 400 mg/L.

For assay [6], the system named is cucumber downy mildew. The assay can be described thus: protectant activity in vivo against cucumber downy mildew. The note with it: protectant activity; for pest or weed control at 25 µg/mL: read-out: control effect against cucumber downy mildew (%), 25 mg/L; for pest or weed control at 50 µg/mL: read-out: control effect against cucumber downy mildew (%), 50 mg/L; for pest or weed control at 100 µg/mL: read-out: control effect against cucumber downy mildew (%), 100 mg/L; for pest or weed control at 400 µg/mL: read-out: control effect against cucumber downy mildew (%), 400 mg/L.

[7] abbreviates: Myzus persicae, foliar, 48 h, 600 mg/L, read-out: Insecticidal activity against peach aphid (%).

As for `CCc1ncnc(NCc2ccc(Oc3ccc(C(F)(F)F)cn3)cc2)c1Cl` [CK42, reference compound], the values for the pest or weed control at 600 µg/mL in assay [1] (600 mg/L), in assay [2] and in assay [3] (setting [7]) were 0%, 0% and 100%, respectively. In assay [3] (Myzus persicae, foliar, 48 h, 2.5 mg/L, read-out: Insecticidal activity against peach aphid (%)), the pest or weed control at 2.5 µg/mL worked out at 0%. The pest or weed control at 5 µg/mL in assay [3] (Myzus persicae, foliar, 48 h, 5 mg/L, read-out: Insecticidal activity against peach aphid (%)) came to 17%. Further, the pest or weed control at 10 µg/mL in assay [3] (Myzus persicae, foliar, 48 h, 10 mg/L, read-out: Insecticidal activity against peach aphid (%)) was 20%. Besides, the pest or weed control at 100 µg/mL in assay [3] (Myzus persicae, foliar, 48 h, 100 mg/L, read-out: Insecticidal activity against peach aphid (%)) was determined as 67%; in assay [5], 70%; in assay [6] (Cucumis sativus, 168 h), 100%. In addition, the pest or weed control at 400 µg/mL in assay [4] (Zea mays, 168 h) was 70%; in assay [5] it was 100%; in assay [6] (Cucumis sativus, 168 h), 100%. Further, the pest or weed control at 6.25 µg/mL in assay [5] was 50%; in assay [6] (Cucumis sativus, 168 h, read-out: control effect against cucumber downy mildew (%), 6.25 mg/L), 0%. In addition, the pest or weed control at 25 µg/mL in assay [5] worked out at 60%; in assay [6] (Cucumis sativus, 168 h), 20%. Also, the pest or weed control at 3.125 µg/mL in assay [6] (Cucumis sativus, 168 h, read-out: control effect against cucumber downy mildew (%), 3.125 mg/L) is 0%. Besides, in assay [6] (Cucumis sativus, 168 h, read-out: control effect against cucumber downy mildew (%), 12.5 mg/L), the pest or weed control at 12.5 µg/mL worked out at 0%. For the same molecule, the pest or weed control at 50 µg/mL in assay [6] (Cucumis sativus, 168 h) was 100%.

Regarding `Cc1ncnc(NC(C)c2ccc(Oc3nc(Cl)c(Cl)cc3Cl)cc2)c1Cl` (stereo not shown) [CK29, reference compound], the pest or weed control at 600 µg/mL stood at 0% in assay [1] (600 mg/L), 14% in assay [2] and 0% in assay [3] (setting [7]). Further, the pest or weed control at 6.25 µg/mL stood at 30% in assay [4] (Zea mays, 168 h, read-out: control effect against corn rust (%), 6.25 mg/L) and 40% in assay [5]. Moreover, the pest or weed control at 25 µg/mL in assay [4] (Zea mays, 168 h, read-out: control effect against corn rust (%), 25 mg/L) is 85%; in assay [5], 50%; in assay [6] (Cucumis sativus, 168 h), 25%. In addition, the pest or weed control at 100 µg/mL in assay [4] (Zea mays, 168 h, read-out: control effect against corn rust (%), 100 mg/L) stood at 95%; in assay [5] it was 80%; in assay [6] (Cucumis sativus, 168 h) it was 98%. In addition, the pest or weed control at 400 µg/mL in assay [4] (Zea mays, 168 h) was 100%; in assay [5] it was 100%; in assay [6] (Cucumis sativus, 168 h), 98%. Besides, the pest or weed control at 50 µg/mL in assay [6] (Cucumis sativus, 168 h) was 90%.

On to `CCc1ncnc(NC(C)c2ccc(Oc3ccc(F)cc3)nc2)c1Cl` (stereo not shown) [CK9, reference compound], for which the “Insecticidal activity against diamond back moth (%)” value in assay [1] (10 mg/L) was 25%; in assay [1] (100 mg/L) it was 45%; in assay [1] (600 mg/L), 100%. In addition, the “Insecticidal activity against armyworm (%)” value in assay [2] worked out at 40%. For the same molecule, the “Insecticidal activity against peach aphid (%)” value is 23% in assay [3] (10 mg/L), 79% in assay [3] (100 mg/L) and 100% in assay [3] (600 mg/L). Besides, the “control effect against corn rust (%)” value in assay [4] (6.25 mg/L) was determined as 0%; in assay [4] (25 mg/L), 20%; in assay [4] (100 mg/L) it was 100%; in assay [4] (400 mg/L), 100%. Further, the “control effect against wheat powdery mildew (%)” value in assay [5] (6.25 mg/L) is recorded as 0%; in assay [5] (25 mg/L), 0%; in assay [5] (100 mg/L), 0%; in assay [5] (400 mg/L), 100%. Besides, the “control effect against cucumber downy mildew (%)” value in assay [6] (25 mg/L) was 70%; in assay [6] (50 mg/L) it was 90%; in assay [6] (100 mg/L), 98%; in assay [6] (400 mg/L), 100%.

In the case of `CCc1ncnc(NC(C)c2ccc(Oc3ccc(C(C)(C)C)cc3)nc2)c1Cl` (stereo not shown) [CK10, reference compound], the “Insecticidal activity against diamond back moth (%)” value in assay [1] (600 mg/L) worked out at 33%. The “Insecticidal activity against armyworm (%)” value in assay [2] is reported as 0%. The “Insecticidal activity against peach aphid (%)” value was 23% in assay [3] (10 mg/L), 91% in assay [3] (100 mg/L) and 100% in assay [3] (600 mg/L). Also, the “control effect against corn rust (%)” value in assay [4] (400 mg/L) is 50%. Moreover, in assay [5] (400 mg/L), the “control effect against wheat powdery mildew (%)” value is 50%. For the same molecule, the “control effect against cucumber downy mildew (%)” value was 20% in assay [6] (25 mg/L), 40% in assay [6] (50 mg/L), 82% in assay [6] (100 mg/L) and 100% in assay [6] (400 mg/L).
